Like-named read-outs stand apart in the source and are kept apart here.
Tests used:
Type in all cases: biochemical
TACE = target: T1, TACE (Homo sapiens, UniProt P78536); assay: TACE inhibition experiment (in vitro)
T1 construct: made in house; host or cells: mammalian cells or insect cells

Human MMP3 = target: T2, Human MMP3 (Homo sapiens, UniProt P08254); assay: MMP3 inhibition experiment; conditions: concentration required for 50% inhibition of enzyme activity; read-out: IC50 value MMP-3
T2 construct: purchased Calbiochem 444217
Method in brief: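 Recombinant human MMP3 (5 ng) mixed with fluorogenic peptide NFF-3 (20 μM stock solution) and incubated 5 hours at 37° C; cleavage followed by fluorescence of the quenched substrate.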

Human MMP14 = target: T3, Human MMP14 (Homo sapiens, UniProt P50281); assay: MMP14 inhibition experiment; conditions: concentration required for 50% inhibition of enzyme activity; read-out: IC50 value MMP-14
T3 construct: purchased Biogenesis or Calbiochem 5980-1461 or 475935
Method in brief: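 Fluorescence assay: substrate Dnp-Pro-Cha-Gly-Cys(Me)-His-Ala-Lys(Nma)-NH2 (20 μM before equal-volume mixing) incubated at 37° C for 5 hours with 4 ng human MMP14.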

Human MMP1 = target: T4, Human MMP1 (Homo sapiens, UniProt P03956); assay: MMP1 inhibition experiment; conditions: read-out: IC50 value MMP-1
T4 construct: purchased Calbiochem 444208
T4 sequence (P03956 100-469): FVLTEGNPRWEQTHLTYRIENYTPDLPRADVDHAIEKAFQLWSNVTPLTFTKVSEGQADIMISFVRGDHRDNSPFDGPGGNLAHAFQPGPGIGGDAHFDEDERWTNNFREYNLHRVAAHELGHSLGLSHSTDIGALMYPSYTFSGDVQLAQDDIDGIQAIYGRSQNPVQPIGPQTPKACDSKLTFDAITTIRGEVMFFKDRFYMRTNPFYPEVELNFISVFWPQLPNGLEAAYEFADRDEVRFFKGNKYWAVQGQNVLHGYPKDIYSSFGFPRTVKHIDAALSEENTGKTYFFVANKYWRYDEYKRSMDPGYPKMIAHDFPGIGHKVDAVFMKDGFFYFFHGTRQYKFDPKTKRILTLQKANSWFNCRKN

Human MMP9 = target: T5, Human MMP9 (Homo sapiens, UniProt P14780); assay: MMP9 inhibition experiment; conditions: read-out: IC50 value MMP-9
T5 construct: purchased Calbiochem 444231

Human MMP17 = target: T6, Human MMP17 (Homo sapiens, UniProt Q9ULZ9); assay: MMP17 inhibition test; conditions: concentration required for 50% inhibition of enzyme activity; read-out: IC50 value MMP-17
T6 construct: purchased Calbiochem 475940
T6 sequence (Q9ULZ9 126-300 limits assumed): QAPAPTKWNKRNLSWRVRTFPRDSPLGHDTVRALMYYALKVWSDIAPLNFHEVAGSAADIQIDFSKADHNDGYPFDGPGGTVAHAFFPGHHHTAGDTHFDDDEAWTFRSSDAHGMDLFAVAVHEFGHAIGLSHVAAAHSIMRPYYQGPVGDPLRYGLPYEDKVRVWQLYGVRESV

Human MMP2 = target: T7, Human MMP2 (Homo sapiens, UniProt P08253); assay: MMP2 inhibition experiment; conditions: concentration required for 50% inhibition of enzyme activity; read-out: IC50 value MMP-2
T7 construct: purchased Calbiochem 444213
T7 sequence (P08253 110-660): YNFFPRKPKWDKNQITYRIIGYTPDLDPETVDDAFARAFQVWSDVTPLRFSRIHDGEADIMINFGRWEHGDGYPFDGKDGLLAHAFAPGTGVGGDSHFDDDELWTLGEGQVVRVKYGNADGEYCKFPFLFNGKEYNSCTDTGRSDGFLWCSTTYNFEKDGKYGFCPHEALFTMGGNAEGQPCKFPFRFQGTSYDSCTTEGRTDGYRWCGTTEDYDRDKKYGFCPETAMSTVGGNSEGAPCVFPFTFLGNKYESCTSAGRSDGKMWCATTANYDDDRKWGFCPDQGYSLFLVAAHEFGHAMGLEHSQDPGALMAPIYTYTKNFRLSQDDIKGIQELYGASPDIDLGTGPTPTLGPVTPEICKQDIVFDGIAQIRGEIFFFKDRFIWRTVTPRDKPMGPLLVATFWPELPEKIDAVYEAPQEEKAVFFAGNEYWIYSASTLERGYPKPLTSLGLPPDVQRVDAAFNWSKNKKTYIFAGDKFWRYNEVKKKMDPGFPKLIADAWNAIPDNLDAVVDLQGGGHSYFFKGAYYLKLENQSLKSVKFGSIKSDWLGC

Human MMP13 = target: T8, Human MMP13 (Homo sapiens, UniProt P45452); assay: MMP13 inhibition experiment; conditions: concentration required for 50% inhibition of enzyme activity; read-out: IC50 value MMP-13
T8 construct: purchased Chemicon CC068

Human MMP8 = target: T9, Human MMP8 (Homo sapiens, UniProt P22894); assay: MMP8 inhibition experiment; conditions: concentration required for 50% inhibition of enzyme activity; read-out: IC50 value MMP-8
T9 construct: purchased Calbiochem 444229
Protocol: MMP inhibition experiment may be carried out using a fluorescent synthetic substrate according to, for example, the methods of Bickett et al. (D. Mark Bickett et al., Anal. Biochem., 1993, 212, 58-64) and Nagase et al. (H. Nagase et al., J. Biol. Chem., 1994, 269, 20952-20957). The methods of inhibition experiments carried out for various MMPs are described below.
Human MMP8 (Calbiochem #444229) in amount of 90 μL (30 ng) was activated by mixing with 10 μL of 10 mM APMA, followed by reaction for 1 hour at 37° C. This enzyme solution in amount of 10 μL was diluted to 90 μL with the assay buffer A, which was added to 90 μL of […] fluorescent substrate (MOCAc-Pro-Leu-Gly-Leu-A2pr(Dnp)-Ala-Arg-NH2, Peptide Institute, Inc., #3163-v) prepared in the assay buffer B, followed by reaction for 5 hours at 37° C.

[1] = concentration required for 50% inhibition of enzyme activity

T2 sequence (P08254 100-272 limits assumed): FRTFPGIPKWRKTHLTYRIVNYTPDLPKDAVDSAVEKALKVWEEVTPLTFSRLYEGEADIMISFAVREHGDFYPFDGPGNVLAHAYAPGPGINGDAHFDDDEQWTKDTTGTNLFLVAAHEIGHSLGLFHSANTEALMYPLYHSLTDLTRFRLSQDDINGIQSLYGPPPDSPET
T5 sequence (P14780 107-707 limits assumed): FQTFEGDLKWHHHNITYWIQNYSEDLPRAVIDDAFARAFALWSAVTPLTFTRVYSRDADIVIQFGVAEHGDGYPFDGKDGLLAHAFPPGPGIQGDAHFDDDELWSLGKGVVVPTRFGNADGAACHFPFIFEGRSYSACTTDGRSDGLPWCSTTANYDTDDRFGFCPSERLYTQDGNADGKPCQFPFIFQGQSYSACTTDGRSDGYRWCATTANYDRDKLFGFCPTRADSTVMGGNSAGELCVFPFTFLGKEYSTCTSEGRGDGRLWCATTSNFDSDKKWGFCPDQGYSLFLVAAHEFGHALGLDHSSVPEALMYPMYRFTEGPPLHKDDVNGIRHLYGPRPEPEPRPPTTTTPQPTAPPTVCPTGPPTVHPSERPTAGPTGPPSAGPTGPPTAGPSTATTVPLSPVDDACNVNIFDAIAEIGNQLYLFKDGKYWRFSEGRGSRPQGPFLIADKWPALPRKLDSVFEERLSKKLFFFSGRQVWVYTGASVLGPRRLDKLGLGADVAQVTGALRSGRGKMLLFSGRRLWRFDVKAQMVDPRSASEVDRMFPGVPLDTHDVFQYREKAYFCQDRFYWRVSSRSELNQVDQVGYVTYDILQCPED
T9 sequence (P22894 101-467): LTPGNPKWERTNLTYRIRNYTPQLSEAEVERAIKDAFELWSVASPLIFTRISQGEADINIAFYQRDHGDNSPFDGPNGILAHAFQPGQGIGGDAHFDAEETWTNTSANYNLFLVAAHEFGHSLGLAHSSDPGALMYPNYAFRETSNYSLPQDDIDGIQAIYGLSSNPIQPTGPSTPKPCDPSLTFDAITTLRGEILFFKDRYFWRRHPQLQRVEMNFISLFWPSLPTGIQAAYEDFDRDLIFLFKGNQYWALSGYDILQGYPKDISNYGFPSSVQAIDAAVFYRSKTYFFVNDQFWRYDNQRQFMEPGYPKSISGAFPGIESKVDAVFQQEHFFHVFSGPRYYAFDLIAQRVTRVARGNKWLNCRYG
T1 sequence (P78536 215-824): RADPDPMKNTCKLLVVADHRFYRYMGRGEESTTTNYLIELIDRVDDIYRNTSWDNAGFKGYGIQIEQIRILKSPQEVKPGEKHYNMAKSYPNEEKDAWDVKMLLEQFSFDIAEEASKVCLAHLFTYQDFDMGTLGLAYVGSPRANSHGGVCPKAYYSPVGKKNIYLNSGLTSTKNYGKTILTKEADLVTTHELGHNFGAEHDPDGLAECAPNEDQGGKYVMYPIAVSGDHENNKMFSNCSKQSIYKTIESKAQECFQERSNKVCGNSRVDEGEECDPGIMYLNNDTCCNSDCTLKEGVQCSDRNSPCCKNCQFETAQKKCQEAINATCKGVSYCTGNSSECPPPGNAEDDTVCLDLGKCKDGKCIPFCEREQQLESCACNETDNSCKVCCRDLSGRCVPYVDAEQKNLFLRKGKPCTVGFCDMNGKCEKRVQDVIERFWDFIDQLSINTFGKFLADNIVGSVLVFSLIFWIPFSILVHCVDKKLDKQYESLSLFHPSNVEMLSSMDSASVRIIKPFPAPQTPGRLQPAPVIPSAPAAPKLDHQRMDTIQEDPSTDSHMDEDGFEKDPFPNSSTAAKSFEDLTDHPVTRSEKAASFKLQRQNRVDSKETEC

Row | SMILES | IC50 (TACE) [µM] | IC50 (Human MMP3) [µM] | IC50 (Human MMP14) [µM] | IC50 (Human MMP1) [µM] | IC50 (Human MMP9) [µM] | IC50 (Human MMP17) [µM] | IC50 (Human MMP2) [µM] | IC50 (Human MMP13) [µM] | IC50 (Human MMP8) [µM] | IC50 (TACE; [1]) [µM] | IC50 (Human MMP9; [1]) [µM]
1 | Cc1cc(COc2ccc(S(=O)(=O)CC(C3CCC4(CC3)OCCO4)N(O)C=O)cc2)c2ccccc2n1 (stereo not drawn) [Example I-28, N-{1-(1,4-dioxaspiro[4.5]dec-8-yl)-2-[4-(2-methylquinolin-4-ylmethoxy)benzenesulfonyl]ethyl}-N-hydroxyformamide] |  | 0.28 | 30 | 65 |  | 0.22 | 7 | 3.3 | 9 | 0.015 | 40
2 | Cc1cc(COc2ccc(S(=O)(=O)CC(CC3CCN(C(=O)c4ccccc4)CC3)N(O)C=O)cc2)c2ccccc2n1 (stereo not drawn) [Example I-50] | 0.013 | 0.2 | 30 | 60 | 31 | 0.2 | 1.4 | 3 | 5.8 |  | 
3 | Cc1cncc(C(CS(=O)(=O)c2ccc(OCc3cc(C)nc4ccccc34)cc2)N(O)C=O)c1 (stereo not drawn) [Example I-31] | 0.0028 | 3.2 | 90 | > 100 | > 100 | 1.8 | 50 | 26 | 62 |  | 
4 | CC(=C1CCOCC1)C(CS(=O)(=O)c1ccc(OCc2cc(C)nc3ccccc23)cc1)N(O)C=O (stereo not drawn) [Example I-15] | 0.0055 | 9 | 70 | > 100 | > 100 | 3.5 | 38 | 30 | 60 |  | 
5 | Cc1cc(COc2ccc(S(=O)(=O)CC(C=C3CCN(C(=O)OC(C)(C)C)CC3)N(O)C=O)cc2)c2ccccc2n1 (stereo not drawn) [Example I-18] | 0.004 | 0.65 | 20 | 65 | 10 | 0.6 | 3.3 | 3.5 | 24.5 |  | 
6 | Cc1cc(COc2ccc(S(=O)(=O)CC(C3CCOCC3)N(O)C=O)cc2)c2ccccc2n1 (stereo not drawn) [Example I-49] | 0.013 | 2 | 90 | > 100 | > 100 | 0.61 | 24 | 30 | 9 |  | 
7 | Cc1ccc(CCCC(CS(=O)(=O)c2ccc(OCc3cc(C)nc4ccccc34)cc2)N(O)C=O)cc1 (stereo not drawn) [Example I-37] | 0.17 | 2 | 33 | 57 | 22 | 1.1 | 2.7 | 6 | 25 |  | 
8 | CCC(CC)CN1CCC(=CC(CS(=O)(=O)c2ccc(OCc3cc(C)nc4ccccc34)cc2)N(O)C=O)CC1 (stereo not drawn) [Example I-44] | 0.0078 | 3 | 60 | > 100 | > 100 | 1.1 | 6.5 | 20 | 42 |  | 

Results, then the compound that gave them:

Row | IC50 (TACE) [µM] | IC50 (Human MMP3) [µM] | IC50 (Human MMP14) [µM] | IC50 (Human MMP1) [µM] | IC50 (Human MMP9) [µM] | IC50 (Human MMP17) [µM] | IC50 (Human MMP2) [µM] | IC50 (Human MMP13) [µM] | IC50 (Human MMP8) [µM] | IC50 (TACE; [1]) [µM] | IC50 (Human MMP9; [1]) [µM] | SMILES
9 | 0.0031 | 2.8 | 55 | > 100 | > 100 | 3.9 | 36 | 16 | 52 |  |  | Cc1cncc(C(CS(=O)(=O)c2ccc(OCc3cc(C)nc4ccc(C)cc34)cc2)N(O)C=O)c1 (stereo not drawn) [Example I-78]
10 | 0.011 | 1.3 | 92 | > 100 | > 100 | 1.9 | 11 | 30 | 22 |  |  | Cc1cc(COc2ccc(S(=O)(=O)CC(CC3CCN(S(C)(=O)=O)CC3)N(O)C=O)cc2)c2ccccc2n1 (stereo not drawn) [Example I-70]
11 | 0.023 | 0.5 | 40 | 80 | 50 | 0.22 | 1.5 | 0.53 | 8 |  |  | Cc1cc(COc2ccc(S(=O)(=O)CC(C3CCN(C(=O)OC(C)(C)C)CC3)N(O)C=O)cc2)c2ccccc2n1 (stereo not drawn) [Example I-68]
12 | 0.0045 | 4 | > 100 | > 100 | > 100 | 7 | 18 | 23 | 27 |  |  | Cc1cncc(C(CS(=O)(=O)c2ccc(OCc3cc(C)nc4ccc(F)cc34)cc2)N(O)C=O)c1 (stereo not drawn) [Example I-80]
13 | 0.012 | 6 | 33 | 42 | 60 | 4.6 | > 100 | 33 | > 100 |  |  | Cc1ccc(C(C)(CS(=O)(=O)c2ccc(OCc3cc(C)nc4ccccc34)cc2)N(O)C=O)cc1 (stereo not drawn) [Example I-57]
14 | 0.0033 | 1.5 | 54 | 80 | 62 | 1.8 | 5 | 10 | 24 |  |  | Cc1cc(COc2ccc(S(=O)(=O)CC(C=C3CCN(C(=O)OC(C)(C)C)CC3C)N(O)C=O)cc2)c2ccccc2n1 (stereo not drawn) [Example I-61]
15 | 0.006 | 4.8 | 7 | 34 | 24 | 4.8 | 1.9 | 5.8 | 1.9 |  |  | Cc1cc(COc2ccc(S(=O)(=O)CC(c3ccccc3C)N(O)C=O)cc2)c2cccc(F)c2n1 (stereo not drawn) [Example I-124, N-{2-[4-(8-fluoro-2-methylquinolin-4-ylmethoxy)benzenesulfonyl]-1-o-tolylethyl}-N-hydroxyformamide]
16 | 0.014 | 0.24 | 19 | 50 | 46 | 0.11 | 2.6 | 2.7 | 7 |  |  | CCC(CC)C(=O)N1CCCC(C(CS(=O)(=O)c2ccc(OCc3cc(C)nc4ccccc34)cc2)N(O)C=O)C1 (stereo not drawn) [Example I-130]
17 | 0.62 | 20 | > 100 | > 100 | > 100 | 22 | 12 | 28 | 20 |  |  | COCc1cc(COc2ccc(S(=O)(=O)CC(c3ccccc3C)N(O)C=O)cc2)cc(C)n1 (stereo not drawn) [Example I-117]

From patent US7511144B2, “Reverse hydroxamic acid derivatives” (Kaken Pharmaceutical Co., Ltd., priority 2001, dated 2009)
